Values joined by “and” are separate entries in the source; they are usually repeats but may differ in a detail not shown here. Equal values may be shown once.

What all share (assay type): cell-based
The subject of one test is panel of 10 cell lines. The test can be described thus: calcium mobilization profile across the panel of 10 cell lines. Conditions: for effect on calcium responses to histamine: histamine-induced calcium mobilization, panel of 10 cell lines, antagonist 1 or 10 uM. How it is done: (§1) The above panel of 10 cell lines was plated in 96-well black, clear-bottomed tissue culture-treated plates (Molecular Devices, Sunnyvale, Calif. with the number of cells per well indicated in Table 1. Cells were maintained overnight at 37° C., 5%CO2 in a humidified incubator. Media was removed and the cells were then incubated in Hanks balanced salt solution (Invitrogen, Carlsbad Calif.)/10 mM HEPES pH 7.4 containing 0.04% Pluronic Acid (Molecular Probes, Eugene Oreg.) and 4 uM Fluor-3AM (Molecular Probes, Eugene Oreg.) for one hour at 37° C.
(§2) Antagonists were added to the indicated concentration and the cells incubated at room temperature for 20 minutes. After 10 seconds of baseline read collection, agonists were added on a FLIPR instrument (Molecular Devices, Sunnyvale, Calif.) and data were collected for a total of 3.5 minutes. The fluorescence emission was normalized to initial intensity and the sum of the signal over the entire time period was exported and used for determining percent of control responses using the following formula: Percent of Control=(Sample-unstimulated cells)/(ionomycin treated cells-unstimulated cells). […] Calcium mobilization was measured as described above.
(§3) Expression of the target H1 receptor was measured by RT-PCR of mRNA samples from each cell line, as follows.
On the technique in general: Calcium flux is commonly read through the fluorescence of an indicator in the cells.

The test system of another test is NTera-2. The test can be described thus: calcium mobilization (FLIPR, Fluo-3) in NTera-2. The note with it: for calcium mobilization, Percent of Control: NTera-2; for effect on the response to ionomycin in NTera-2 cells: antagonist at 10 uM, cells do not express the H1 receptor. On the procedure:
as §1
as §2, with “above. […]” for “above.”

For the next test, the system named is COLO320. The test can be described thus: calcium mobilization (FLIPR, Fluo-3) in COLO320. How it is done: as §1, §2, §3
Another test relates to T-47D. The test can be described thus: calcium mobilization (FLIPR, Fluo-3) in T-47D. Conditions: for calcium mobilization, Percent of Control: T-47D; for effect on the response to ionomycin in T-47D cells: antagonist at 10 uM, cells do not express the H1 receptor. How it is done: as §1, §2, §3
In another test the test system is PC-3. Nature of the test: calcium mobilization (FLIPR, Fluo-3) in PC-3. How it is done:
as §1
as §2, with “above. […]” for “above.”

In another test the test system is NCI-H460. Nature of the test: calcium mobilization (FLIPR, Fluo-3) in NCI-H460. On the procedure:
as §1
as §2, with “above. […]” for “above.”

For a further test, the system named is SaOS-2. The test can be described thus: calcium mobilization (FLIPR, Fluo-3) in SaOS-2. Conditions: for calcium mobilization, Percent of Control: SaOS-2; for effect on responses to bradykinin in SaOS-2 cells: antagonist at 10 uM. How it is done:
as §1
as §2, with “above. […]” for “above.”

The next test concerns PANC-1. Nature of the test: calcium mobilization (FLIPR, Fluo-3) in PANC-1. On the procedure: as §1
as §2, with “above. […]” for “above.”

Another test relates to Jurkat. Nature of the test: calcium mobilization (FLIPR, Fluo-3) in Jurkat. On the procedure: as §1
as §2, with “above. […]” for “above.”

For a further test, the system named is HBL-100. Nature of the test: calcium mobilization (FLIPR, Fluo-3) in HBL-100. Conditions: for effect on responses to bradykinin in HBL-100 cells: antagonist at 10 uM; for calcium mobilization, Percent of Control: HBL-100. How it is done:
as §1
as §2, with “above. […]” for “above.”

Another test deals with SK-Hep-1. The test can be described thus: calcium mobilization (FLIPR, Fluo-3) in SK-Hep-1. The note with it: agonist alone (buffer), 10 uM, 100 = 10 uM ionomycin. On the procedure: as §1, §2
The mark [1] stands for this setting: response to 1 uM bradykinin after antagonist 10 uM.
Where [2] appears, read: response to 10 uM histamine after antagonist 10 uM, 20 min.
Setting [3] is: response to 10 uM ionomycin after antagonist 10 uM.
Setting [4] is: agonist alone (buffer), 10 uM, 100 = 10 uM ionomycin.

Take `COc1ccc2c(c1)CC[C@@H]1[C@@H]2CC[C@]2(C)[C@@H](NCCCCCCN3C(=O)C=CC3=O)CC[C@@H]12` [Compound U73122, U73122]: the “specificity as inhibitor of histamine signaling through the H1 receptor” value in the test with panel of 10 cell lines (compared with chlorpheniramine) is recorded as “less specific than chlorpheniramine”. In addition, in the test with panel of 10 cell lines, the “effect on calcium responses to histamine” value is on record as “inhibit responses to histamine”. For the same compound, the “calcium mobilization, Percent of Control” value in the test on NTera-2 (setting [1]) is given as 1% of Control; in the test on NTera-2 (setting [2]), 2% of Control; in the test on NTera-2 (setting [3]), 72% of Control; in the test on COLO320 (setting [1]) it was 5% of Control; in the test with COLO320 (setting [2]), 2% of Control; in the test on COLO320 (setting [3]) it was 73% of Control. Also, the “calcium mobilization, Percent of Control” value in the test on T-47D (setting [1]) was 1% of Control; with T-47D (setting [2]), 1% of Control; with T-47D (setting [3]), 88% of Control; in the test with PC-3 (setting [1]) it was 0% of Control; with PC-3 (setting [2]), 0% of Control; in the test with PC-3 (setting [3]), 100% of Control. Moreover, the “calcium mobilization, Percent of Control” value with NCI-H460 (setting [1]) is 1% of Control; with NCI-H460 (setting [2]), 2% of Control; in the test with NCI-H460 (setting [3]) it was 102% of Control; in the test with SaOS-2 (setting [1]) it was 2% of Control; with SaOS-2 (setting [2]) it was 0% of Control; in the test with SaOS-2 (setting [3]), 71% of Control. The “calcium mobilization, Percent of Control” value in the test on PANC-1 (setting [1]) is reported as 0% of Control; with PANC-1 (setting [2]) it was 2% of Control; with PANC-1 (setting [3]), 89% of Control; with Jurkat (setting [1]) it was 52% of Control; with Jurkat (setting [2]), 2% of Control; with Jurkat (setting [3]) it was 52% of Control. Besides, the “effect on the response to ionomycin in NTera-2 cells” value in the test on NTera-2 is reported as “partially inhibit the response to ionomycin”. The “effect on the response to ionomycin in T-47D cells” value in the test on T-47D was “partially inhibit the response to ionomycin”. In the test on SaOS-2, the “effect on responses to bradykinin in SaOS-2 cells” value is given as “inhibits the responses”. Moreover, the “effect on responses to bradykinin in HBL-100 cells” value in the test with HBL-100 is given as “inhibits the responses”.

Turning to `CNCCc1cnc[nH]1` [N-a-his, N-alphamethyl histamine], the “activity in cells that do not express the H1 receptor target” value with panel of 10 cell lines (agonist example, 10 uM) is reported as “Neither Compound 1 nor histamine were active”. Further, the “calcium mobilization, Percent of Control” value in the test on NTera-2 (setting [4]) is 2% of Control; with COLO320 (setting [4]), 1% of Control; with T-47D (setting [4]), 0% of Control; in the test on PC-3 (setting [4]), 1% of Control; in the test with NCI-H460 (setting [4]), 30% of Control; in the test with SaOS-2 (setting [4]), 11% of Control. Besides, the “calcium mobilization, Percent of Control” value is 22% of Control in the test on PANC-1 (setting [4]), 2% of Control with Jurkat (setting [4]), 16% of Control with HBL-100 (setting [4]) and 12% of Control in the test on SK-Hep-1.

As to `C[C@H](CCC(=O)O)C[C@H](C)C[C@H](C)C(=O)/C=C(\O)[C@H](C)C[C@H](C)C/C=C/[C@@H](C)[C@@H](O)[C@@H](C)[C@@H](O)C[C@@H]1CC[C@@](C)([C@H]2CC[C@@](C)([C@@H](C)O)O2)O1` [ionomycin], the “calcium mobilization, Percent of Control” value with NTera-2 (setting [4]), with COLO320 (setting [4]), in the test with T-47D (setting [4]), in the test on PC-3 (setting [4]), in the test with NCI-H460 (setting [4]) and with SaOS-2 (setting [4]) was 100% of Control throughout. Besides, the “calcium mobilization, Percent of Control” value with PANC-1 (setting [4]), in the test with Jurkat (setting [4]), in the test with HBL-100 (setting [4]) and in the test on SK-Hep-1 was 100% of Control each time.

For the compound `C[C@@H](N)Cc1c[nH]cn1` [R-a-his, R-alphamethyl histamine], the “pattern of calcium responses compared with histamine and bradykinin” value in the test on panel of 10 cell lines (agonist example, 10 uM, 10 cell lines) was “resembles neither bradykinin nor histamine”. Besides, the “calcium mobilization, Percent of Control” value in the test with NTera-2 (setting [4]) is 2% of Control; in the test with COLO320 (setting [4]) it was 1% of Control; in the test with T-47D (setting [4]), 0% of Control; with PC-3 (setting [4]) it was 0% of Control; with NCI-H460 (setting [4]), 0% of Control; in the test on SaOS-2 (setting [4]), 0% of Control. In addition, the “calcium mobilization, Percent of Control” value is 0% of Control in the test on PANC-1 (setting [4]), 2% of Control in the test with Jurkat (setting [4]), −1% of Control with HBL-100 (setting [4]) and −1% of Control with SK-Hep-1.

On to `NCCc1c[nH]cn1` [histamine], for which the “activity in cells that do not express the H1 receptor target” value with panel of 10 cell lines (agonist example, 10 uM) is recorded as “Neither Compound 1 nor histamine were active”. In addition, the “calcium mobilization, Percent of Control” value is 0% of Control in the test with NTera-2 (setting [4]); 1% of Control in the test with PC-3 (setting [4]); 32% of Control and 24% of Control in the test with NCI-H460 (setting [4]); 13% of Control and 18% of Control in the test on SaOS-2 (setting [4]); 26% of Control and 30% of Control in the test on PANC-1 (setting [4]); 18% of Control and 27% of Control in the test with HBL-100 (setting [4]). Also, the “calcium mobilization, Percent of Control” value in the test on SK-Hep-1 is 19% of Control.

Regarding `CN(C)CCC(c1ccc(Cl)cc1)c1ccccn1` (stereo not shown) [Compound C1PhAm, chlorpheniramine], the “effect on calcium responses to bradykinin” value in the test on panel of 10 cell lines (bradykinin-induced, antagonist at 10 uM) was “did not inhibit bradykinin responses”. Further, the “effect on calcium responses to histamine” value in the test with panel of 10 cell lines is given as “had similar effects to Compound 1”. The “calcium mobilization, Percent of Control” value was 0% of Control with NTera-2 (setting [2]); 99% of Control and 119% of Control with NTera-2 (setting [3]); 0% of Control with COLO320 (setting [1]); 98% of Control and 95% of Control with COLO320 (setting [3]); 102% of Control in the test on T-47D (setting [3]); 0% of Control in the test on PC-3 (setting [1]). The “calcium mobilization, Percent of Control” value in the test on PC-3 (setting [2]) was 0% of Control; in the test with PC-3 (setting [3]) it was 104% of Control; in the test on NCI-H460 (setting [3]), 73% of Control and 96% of Control; in the test with SaOS-2 (setting [1]), 29% of Control and 23% of Control; with SaOS-2 (setting [3]), 96% of Control and 112% of Control; in the test on PANC-1 (setting [3]), 101% of Control and 104% of Control. Further, the “calcium mobilization, Percent of Control” value with Jurkat (setting [1]) is 12% of Control and 10% of Control; with Jurkat (setting [2]), 8% of Control and 5% of Control; with Jurkat (setting [3]), 70% of Control and 123% of Control; in the test on HBL-100 (setting [1]) it was 11% of Control; in the test on HBL-100 (setting [2]), 0% of Control; in the test with HBL-100 (setting [3]), 87% of Control. In the test with NTera-2, the “effect on the response to ionomycin in NTera-2 cells” value is reported as “does not affect the ionomycin response”. The “effect on the response to ionomycin in T-47D cells” value with T-47D is “does not affect the ionomycin response”. Also, the “effect on responses to bradykinin in SaOS-2 cells” value with SaOS-2 is “does not”. Moreover, the “effect on responses to bradykinin in HBL-100 cells” value in the test on HBL-100 is recorded as “does not”.
